Data set [1] concerns the target T1, CYP3A4 (Homo sapiens, UniProt P08684). The experiment in a line: Two-step luminescent P450 assay with luciferin derivatives, recombinant enzyme panel screen. The note with it: for signal/background (S/B) ratio: CYP3A4 vs minus P450 control, 50 μM substrate, 1 pmole P450, 30 minutes at 37° C. (FIG. 2). Details: purchased Discovery Labware (Supersomes™); host or cells: insect cell expression system. The class given is biochemical. How it is done: (§1) For assays using recombinant P450 enzymes, a two-step scheme was followed whereby a luciferin derivative is oxidized by a P450 enzyme in a first step. In the second step, LDR is added to the P450 reaction mixture to stop the P450 activity and initiate a glow-style luciferase reaction whereby the luminescent signal strength is dependent on the amount of luciferin derivative oxidized by a P450 enzyme in the first step.
(§2) Reaction buffers for the P450 enzyme reaction of the first step varied depending on the P450 enzyme used. […] Unless otherwise indicated, the following buffer/enzyme combinations were used: 100 mM KPO4, pH 7.4 for CYP1A1, 1A2, 1B1, 2D6, 2E1, 3A5, 3A7, 2J2, 4F12, 19, and control samples; 50 mM KPO4, pH 7.4 for CYP2B6, 2C8, 2C19, 4F2, 4F3A, 4F3B; 25 mM KPO4, pH 7.4 for CYP2C9; 200 mM KPO4, pH 7.4 for CYP3A4; 100 mM TrisHCl, pH 7.5 for CYP2A6, 2C18, 4A11.
(§3) In FIG. 2 and FIGS. 8-19, luciferin derivatives were screened against a panel of recombinant human cytochrome P450 enzyme and control microsomes (Supersomes™). Concentrated stock solutions of the proluciferin acetal compounds were prepared as follows: 50 mM 3320, 3357, 3364, 3366 and 3391 in acetonitrile; 50 mM 3359, 3365, 3397 and 3403 in dimethyl sulfoxide (DMSO); 50 mM 3377 in H2O; 10 mM 3363 in H2O. Luciferin-PPXE, luciferin-PFBE and luciferin-BE were provided as a 50 mM solution in DMSO, 2 mM solution in 25 mM Tris, pH 8 and a 5 mM solution in 100 mM KPO4, pH 7.4, respectively. Assays were performed in opaque, white, polystyrene, flat-bottom 96-well plates.
(§4) In FIG. 20 using compound 3391, the method used in FIGS. 2 and 8-19 was used with the following changes: 0.1 picomole of each P450 enzyme or an equivalent volume of control membranes was used per reaction; for all reactions, 2 μM compound 3391 was used, 100 mM KPO4, pH 7.4 was used as the P450 reaction buffer, and the reaction was incubated for 10 minutes at 37° C.
(§5) Briefly, in a first step a proluciferin acetal of the present invention is oxidized initially by a P450 enzyme. The oxidized product is then thought to undergo a non-enzymatic conversion to a proluciferin ester. In a second step, the proluciferin ester is detected by adding a luciferase reaction mixture containing an esterase enzyme that converts the proluciferin ester to luciferin. The luciferin reacts with luciferase to produce an amount of light that is proportional to the amount of luciferin, and therefore to the amount of P450 enzyme activity. A sample that contains active P450 enzyme is typically compared to a control that is devoid of P450 activity.

The target in data set [2] is T1, CYP3A4. Put plainly: Concentration dependence of the CYP3A4 reaction with compound 3391. On the set-up: purchased Discovery Labware (Supersomes™); host or cells: insect cell expression system. The class given is biochemical. How it is done: The reactions were performed as described for FIGS. 3-6 except no inhibitors were present in the reactions, and the concentration of compound 3391 varied as indicated in FIG. 7. Signals are expressed as net relative luminescent units (RLU) calculated by subtracting the background RLU values of control reaction mixtures that lack CYP3A4 enzyme from the RLU values of the CYP3A4 reactions. The curve fit was performed with the program GraphPad Prism™.
FIG. 7 illustrates the concentration dependence of the CYP3A4 reaction with compound 3391. […] The data fit well to a substrate inhibition model (R^2=0.99) described by the equation Y=(Vmax·X)/(Km+X+(X·X/Ki)), where X=substrate concentration, Y=activity in relative light units (RLU), Km=[…] and Ki=the substrate inhibition constant.

The next data set has as its target T2, CYP3A4 versus CYP3A5 (Homo sapiens, UniProt P20815).
T2 construct: purchased Discovery Labware (Supersomes™); host or cells: insect cell expression system
Put plainly: Two-step luminescent P450 assay, recombinant enzyme panel screen. The class given is biochemical. The note with it: human, recombinant human CYP3A4 and CYP3A5 microsomes (Supersomes), pH 7.4; FIG. 2 conditions: 50 μM compound, 1 pmole P450, 30 minutes; read-out: selectivity for CYP3A4 over CYP3A5. How it is done: as §1, §2, §3, §4, §5

For a further data set, the target named is T3, CYP3A4 versus CYP3A7 (Homo sapiens, UniProt P24462).
T3 construct: purchased Discovery Labware (Supersomes™); host or cells: insect cell expression system
Described as above. The class given is biochemical. To be noted: human, recombinant human CYP3A4 and CYP3A7 microsomes (Supersomes), pH 7.4; FIG. 2 conditions: 50 μM compound, 1 pmole P450, 30 minutes; read-out: selectivity for CYP3A4 over CYP3A7. As for the experimental part:
as §1, §2, §3, §4, §5

For another data set, the target named is T4, CYP3A5 (Homo sapiens, UniProt P20815).
T4 construct: purchased Discovery Labware (Supersomes™); host or cells: insect cell expression system
Described as above. To be noted: FIG. 20 conditions: 2 μM compound, 0.1 picomole P450, 100 mM KPO4 pH 7.4, 10 minutes at 37° C. The class given is biochemical. How it is done: as §1, §2, §3, §4, §5

The target in a further data set is T5, CYP3A7 (Homo sapiens, UniProt P24462).
T5 construct: purchased Discovery Labware (Supersomes™); host or cells: insect cell expression system
The description is as above. In kind it is biochemical. The note with it: FIG. 20 conditions: 2 μM compound, 0.1 picomole P450, 100 mM KPO4 pH 7.4, 10 minutes at 37° C. How it is done:
as §1, §2, §3, §4, §5

The test system of data set [3] is panel of 21 recombinant human cytochrome P450 enzymes. The description is as above. In kind it is biochemical. How it is done:
as §1, §2
In FIG. 2 and FIGS. 8-19, luciferin derivatives were screened against a panel of recombinant human cytochrome P450 enzyme and control microsomes (Supersomes™). […]
Briefly, in a first step a proluciferin acetal of the present invention is oxidized initially by a P450 enzyme. […] In a second step, the proluciferin ester is detected by adding a luciferase reaction mixture containing an esterase enzyme that converts the proluciferin ester to luciferin. […]

Data set [4] has as its target T1, CYP3A4. The note with it: non-acetal CYP3A4 substrates, Cali et al. 2006; cited from earlier work.
Data set [5] has as its target T1, CYP3A4. How it is done:
In FIGS. 3-6, CYP3A4 enzyme was co-expressed with cytochrome b5 and cytochrome P450 reductase in membrane fractions (Supersomes™). […] The reactions were initiated by addition of the NADPH regenerating system and incubated for 10 minutes at 37° C. After incubation, an equal volume (50 μl) of LDR was added and luminescence read 20 minutes later at room temperature on a Veritas™ luminometer. […] IC50 is the concentration of inhibitor that causes 50% inhibition of the reaction. Curve fits and IC50 calculations were performed with the program GraphPad Prism™.

For data set [6], the target named is T1, CYP3A4. To be noted: cited from earlier work.

T1 sequence (P08684 whole entry): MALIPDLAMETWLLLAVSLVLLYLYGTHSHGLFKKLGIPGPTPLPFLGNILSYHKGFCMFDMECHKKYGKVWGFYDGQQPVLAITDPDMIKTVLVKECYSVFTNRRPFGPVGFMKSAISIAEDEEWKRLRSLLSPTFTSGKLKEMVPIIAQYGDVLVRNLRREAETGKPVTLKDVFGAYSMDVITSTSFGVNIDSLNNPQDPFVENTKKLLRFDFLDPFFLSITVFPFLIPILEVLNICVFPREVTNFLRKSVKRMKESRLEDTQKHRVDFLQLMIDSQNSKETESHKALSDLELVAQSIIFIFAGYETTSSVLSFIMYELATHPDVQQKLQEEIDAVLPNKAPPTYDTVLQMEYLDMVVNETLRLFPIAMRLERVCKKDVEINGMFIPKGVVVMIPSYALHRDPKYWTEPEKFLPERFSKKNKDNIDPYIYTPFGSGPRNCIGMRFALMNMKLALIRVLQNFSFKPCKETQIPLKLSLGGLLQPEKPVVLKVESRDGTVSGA
T4 sequence (P20815 whole entry): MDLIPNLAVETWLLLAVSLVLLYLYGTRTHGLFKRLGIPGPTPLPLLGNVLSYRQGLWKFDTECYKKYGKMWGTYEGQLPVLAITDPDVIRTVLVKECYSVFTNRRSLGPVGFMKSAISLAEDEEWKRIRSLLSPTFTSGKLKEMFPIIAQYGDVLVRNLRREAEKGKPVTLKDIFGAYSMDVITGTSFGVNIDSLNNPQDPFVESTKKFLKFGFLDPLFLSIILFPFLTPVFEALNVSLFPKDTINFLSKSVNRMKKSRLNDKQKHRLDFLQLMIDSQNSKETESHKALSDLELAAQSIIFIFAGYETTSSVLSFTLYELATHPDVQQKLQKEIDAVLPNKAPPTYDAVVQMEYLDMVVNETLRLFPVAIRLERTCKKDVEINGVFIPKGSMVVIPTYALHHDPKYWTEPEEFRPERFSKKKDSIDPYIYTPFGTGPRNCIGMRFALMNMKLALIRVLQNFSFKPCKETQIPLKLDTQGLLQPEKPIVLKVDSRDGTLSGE
T2 sequence (P20815 whole entry): as above
T5 sequence (P24462 whole entry): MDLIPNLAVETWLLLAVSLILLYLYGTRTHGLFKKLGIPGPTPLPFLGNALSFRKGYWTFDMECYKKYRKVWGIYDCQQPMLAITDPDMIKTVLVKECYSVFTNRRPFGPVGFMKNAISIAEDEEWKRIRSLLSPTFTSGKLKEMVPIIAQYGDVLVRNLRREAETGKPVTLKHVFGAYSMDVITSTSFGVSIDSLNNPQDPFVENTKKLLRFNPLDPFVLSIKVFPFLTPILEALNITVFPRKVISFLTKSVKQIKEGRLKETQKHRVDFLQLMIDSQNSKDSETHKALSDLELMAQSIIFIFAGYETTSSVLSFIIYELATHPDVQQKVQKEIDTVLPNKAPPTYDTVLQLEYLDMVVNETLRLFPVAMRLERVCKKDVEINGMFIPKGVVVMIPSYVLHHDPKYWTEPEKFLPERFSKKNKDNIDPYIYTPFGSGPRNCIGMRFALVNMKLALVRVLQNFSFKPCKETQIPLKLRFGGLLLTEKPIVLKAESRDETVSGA
T3 sequence (P24462 whole entry): as above

`CC(C)OC(OC(C)C)C1CSC(c2nc3ccc(O)cc3s2)=N1` (stereo not drawn) [compound 3391]: at CYP3A4 [1] (0.1 picomoles of CYP3A4, 10 minute incubation, 2 μM), the “fraction of compound oxidized during the incubation” value is “less than 10%”. Moreover, the “signal/background (S/B) ratio” value on CYP3A4 [1] came to 1699. Also, the “time over which product accumulation with CYP3A4 is linear” value on CYP3A4 [1] (FIG. 20 conditions) is recorded as “at least 10 minutes”. The “substrate concentration at maximal rate” value at CYP3A4 [2] (FIG. 7) is 12.5 µM. In addition, the Ki on CYP3A4 [2] (substrate inhibition model fit, read-out: Ki (substrate inhibition constant)) is 171 µM. Further, the figures for the selectivity ratio at 30 min, 50 μM at CYP3A4 versus CYP3A5 and at CYP3A4 versus CYP3A7 were 1.4 and 8.5, respectively. On CYP3A5, the “preference for CYP3A4 over CYP3A5” value was 8.0 fold. Also, on CYP3A7, the “preference for CYP3A4 over CYP3A7” value is 48.5 fold. In addition, in data set [3] (50 μM, one picomole enzyme, 30 minutes at 37° C.), the “selectivity/preference for the CYP3A subfamily (CYP3A4, CYP3A5, CYP3A7)” value is recorded as “excellent selectivity”. Besides, the “activities with the other P450 enzymes screened” value in data set [3] (FIG. 20 conditions: 2 μM compound, 0.1 picomole P450, 10 minutes) is recorded as “negligible”.
By Km is commonly meant the substrate concentration at which the rate is half of its maximum. For `O=C(O)[C@H]1CSC(c2nc3ccc(OCc4ccccc4)cc3s2)=N1` [luciferin-BE, (S)-2-(6-(benzyloxy)benzo[d]thiazol-2-yl)-4,5-dihydrothiazole-4-carboxylic acid, reference compound], the “signal/background (S/B) ratio” value on CYP3A4 [1] is given as 55. Also, the Km on CYP3A4 [4] was 50 µM.
With `O=C(O)[C@H]1CSC(c2nc3ccc(OC(F)(F)c4c(F)c(F)c(F)c(F)c4F)cc3s2)=N1` [luciferin-PFBE, (S)-2-(6-(perfluorobenzyloxy)-benzo[d]thiazol-2-yl)-4,5-dihydrothiazole-4-carboxylic acid, reference compound], the “signal/background (S/B) ratio” value on CYP3A4 [1] amounted to 92. Moreover, the Km at CYP3A4 [4] was 50 µM.
As for `O=C(O)[C@H]1CSC(c2nc3ccc(OCc4cccc(CN5CCN(c6ccccc6)CC5)c4)cc3s2)=N1` [luciferin-PPXE, (S)-2-(6-(3-((4-phenylpiperazin-1-yl)methyl)benzyloxy)benzo[d]thiazol-2-yl)-4,5-dihydrothiazole-4-carboxylic acid, reference compound], the “signal/background (S/B) ratio” value at CYP3A4 [1] worked out at 56. Also, on CYP3A4 [4], the Km is 25 µM.
Turning to `Cc1ncc2n1-c1ccc(Cl)cc1C(c1ccccc1F)=NC2` [midazolam], at CYP3A4 [5], the “effect on the CYP3A4/3391 reaction” value is “inhibited”. On CYP3A4 [6], the “effect on CYP3A4 assay using luciferin-BE” value was “inhibited”, the “effect on CYP3A4 assay using luciferin-PFBE” value is recorded as “inhibited” and the “effect on CYP3A4 assay using luciferin-PPXE” value is “inhibited”.

The values are drawn from patent US8288559B2, “Luminogenic compounds and methods to detect cytochrome P450 3A enzymes” (Promega Corporation, priority 2008, dated 2012).
